Measured values published in patent US11339161B2, “Triazolo pyridines as modulators of gamma-secretase” (Boehringer Ingelheim International GmbH, priority 2017, dated 2022).
Where two headings read alike, the source gives them in different places.

Columns and labels:
[1] = biological target: PDGFRA (PDGFR alpha) (Homo sapiens, UniProt P16234); assay: Z'-LYTE SelectScreen biochemical kinase assay PDGFRA (PDGFR alpha)
How it was run: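 Z′-LYTE FRET-peptide cleavage assay: 1.54-22.6 ng PDGFRA with 2 μM Tyr 04 in HEPES pH 7.5 buffer with MgCl2/MnCl2, ATP at apparent Km, 1% DMSO, 60 min at room temperature. Coumarin/fluorescein emission ratio after development; 10-point 3-fold titrations fitted sigmoidally.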

[2] = biological target: PTK2 (FAK) (Homo sapiens, UniProt Q05397); assay: Z'-LYTE SelectScreen biochemical kinase assay PTK2 (FAK)
Chain of PTK2 (FAK) (Q05397 whole entry): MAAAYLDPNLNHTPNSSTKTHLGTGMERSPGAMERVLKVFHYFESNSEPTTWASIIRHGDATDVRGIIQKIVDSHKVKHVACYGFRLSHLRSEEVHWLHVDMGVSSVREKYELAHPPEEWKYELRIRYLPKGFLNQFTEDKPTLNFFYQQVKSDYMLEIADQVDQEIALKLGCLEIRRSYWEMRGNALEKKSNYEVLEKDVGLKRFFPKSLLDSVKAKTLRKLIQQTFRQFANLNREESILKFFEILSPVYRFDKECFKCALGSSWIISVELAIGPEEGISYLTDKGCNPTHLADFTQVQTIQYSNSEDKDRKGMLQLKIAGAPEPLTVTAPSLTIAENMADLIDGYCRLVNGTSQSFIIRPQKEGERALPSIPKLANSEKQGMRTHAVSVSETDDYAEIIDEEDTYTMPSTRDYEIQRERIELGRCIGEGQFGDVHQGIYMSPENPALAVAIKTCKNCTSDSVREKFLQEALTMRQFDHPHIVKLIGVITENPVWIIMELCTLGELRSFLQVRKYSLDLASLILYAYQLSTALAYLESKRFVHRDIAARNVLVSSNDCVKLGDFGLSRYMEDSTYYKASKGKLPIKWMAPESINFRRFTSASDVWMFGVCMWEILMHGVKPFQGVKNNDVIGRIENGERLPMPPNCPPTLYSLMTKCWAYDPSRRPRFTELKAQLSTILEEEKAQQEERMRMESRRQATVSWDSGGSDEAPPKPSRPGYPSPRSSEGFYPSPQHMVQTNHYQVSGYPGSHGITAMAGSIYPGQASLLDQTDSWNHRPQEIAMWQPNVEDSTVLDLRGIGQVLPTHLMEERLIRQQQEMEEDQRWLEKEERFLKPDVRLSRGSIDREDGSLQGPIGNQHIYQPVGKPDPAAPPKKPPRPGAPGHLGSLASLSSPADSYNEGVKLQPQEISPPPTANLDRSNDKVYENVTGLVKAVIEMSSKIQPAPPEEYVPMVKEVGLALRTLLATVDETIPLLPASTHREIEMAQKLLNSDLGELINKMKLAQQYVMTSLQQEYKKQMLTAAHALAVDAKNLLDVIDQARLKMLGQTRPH
How it was run: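 Z′-LYTE FRET assay: 12.5-100 ng PTK2 (FAK) with 2 μM Tyr 07 peptide, ATP at apparent Km, in 50 mM HEPES pH 7.5, 10 mM MgCl2, 1 mM EGTA, 0.01% BRIJ-35, 1% DMSO, 60 min at room temperature. Protease development 60 min; coumarin/fluorescein emission ratio read; 10-point 3-fold titrations fit to sigmoidal dose-response.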

[3] = biological target: RET (Homo sapiens, UniProt P07949); assay: Z'-LYTE SelectScreen biochemical kinase assay RET
Chain of RET (P07949 29-1114): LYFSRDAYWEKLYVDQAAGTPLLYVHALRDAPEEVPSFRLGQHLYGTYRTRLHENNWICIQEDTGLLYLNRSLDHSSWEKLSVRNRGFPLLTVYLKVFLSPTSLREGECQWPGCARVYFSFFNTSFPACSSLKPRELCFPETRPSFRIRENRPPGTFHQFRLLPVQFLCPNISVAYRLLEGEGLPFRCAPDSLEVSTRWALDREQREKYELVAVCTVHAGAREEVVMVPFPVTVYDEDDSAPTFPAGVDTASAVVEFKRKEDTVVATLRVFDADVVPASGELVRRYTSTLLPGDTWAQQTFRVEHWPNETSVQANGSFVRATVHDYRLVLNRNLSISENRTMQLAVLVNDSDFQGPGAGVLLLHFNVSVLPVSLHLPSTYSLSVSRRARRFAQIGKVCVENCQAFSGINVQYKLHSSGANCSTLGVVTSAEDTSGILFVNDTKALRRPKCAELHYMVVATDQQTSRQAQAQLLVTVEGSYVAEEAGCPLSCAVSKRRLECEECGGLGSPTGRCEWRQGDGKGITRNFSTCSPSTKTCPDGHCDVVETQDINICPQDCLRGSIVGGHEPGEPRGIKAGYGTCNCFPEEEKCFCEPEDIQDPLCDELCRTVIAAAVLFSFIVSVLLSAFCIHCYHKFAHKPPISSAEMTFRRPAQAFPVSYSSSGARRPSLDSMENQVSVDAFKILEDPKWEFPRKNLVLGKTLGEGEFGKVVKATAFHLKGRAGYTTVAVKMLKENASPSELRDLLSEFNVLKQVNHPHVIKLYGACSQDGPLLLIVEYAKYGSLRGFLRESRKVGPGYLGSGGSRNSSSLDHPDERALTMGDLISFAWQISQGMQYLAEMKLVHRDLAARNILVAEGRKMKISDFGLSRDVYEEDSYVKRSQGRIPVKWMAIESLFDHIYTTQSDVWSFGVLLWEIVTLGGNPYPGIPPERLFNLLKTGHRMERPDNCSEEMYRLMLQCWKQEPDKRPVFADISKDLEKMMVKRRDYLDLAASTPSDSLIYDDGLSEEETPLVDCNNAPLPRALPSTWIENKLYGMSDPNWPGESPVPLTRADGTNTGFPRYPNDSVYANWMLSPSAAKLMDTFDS
How it was run: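 10 μL reactions with 0.49-3.64 ng RET and 2 μM Tyr 02 peptide in 50 mM HEPES pH 7.5, 10 mM MgCl2, 1 mM EGTA, 0.01% BRIJ-35, 1% DMSO, ATP at apparent Km, 60 min at room temperature. Protease development 60 min, coumarin/fluorescein emission ratio read. IC50 from sigmoidal fit of 10-point 3-fold titrations.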

[4] = biological target: RPS6KB1 (p70S6K) (Homo sapiens, UniProt P23443); assay: Z'-LYTE SelectScreen biochemical kinase assay RPS6KB1 (p70S6K)
Chain of RPS6KB1 (p70S6K) (P23443 whole entry): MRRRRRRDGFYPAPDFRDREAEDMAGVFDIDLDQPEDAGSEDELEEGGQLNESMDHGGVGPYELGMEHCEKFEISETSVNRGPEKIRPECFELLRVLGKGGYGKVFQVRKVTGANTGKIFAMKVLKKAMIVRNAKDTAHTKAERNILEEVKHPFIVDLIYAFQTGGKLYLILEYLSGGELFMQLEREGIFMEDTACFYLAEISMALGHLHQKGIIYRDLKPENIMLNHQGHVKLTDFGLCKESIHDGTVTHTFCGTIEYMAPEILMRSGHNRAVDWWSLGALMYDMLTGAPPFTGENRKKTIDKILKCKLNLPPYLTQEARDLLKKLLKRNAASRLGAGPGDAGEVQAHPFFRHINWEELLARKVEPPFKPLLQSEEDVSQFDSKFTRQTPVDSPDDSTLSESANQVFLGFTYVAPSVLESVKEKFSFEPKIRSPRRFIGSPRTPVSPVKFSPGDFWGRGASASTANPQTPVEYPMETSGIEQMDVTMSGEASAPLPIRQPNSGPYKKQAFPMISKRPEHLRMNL
How it was run: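 Ten-point, 3-fold compound titrations (1% DMSO final) were run against 2.87-17.7 ng kinase, 2 μM Ser/Thr 07 peptide and ATP at apparent Km in HEPES pH 7.5 buffer, 1 h at room temperature, then 1 h protease development. Coumarin/fluorescein ratio (445/520 nm, excitation 400 nm) gave phosphorylation; curves fitted sigmoidally.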

[5] = 10 μmolar compound concentration, ATP at Km app, read-out: PDGFRA (PDGFR alpha) inhibition
[6] = read-out: % Inhibition mean PDGFRA (PDGFR alpha)
[7] = 10 μmolar compound concentration, ATP at Km app, read-out: PTK2 (FAK) inhibition
[8] = read-out: % Inhibition mean PTK2 (FAK)
[9] = 10 μmolar compound concentration, ATP at Km app, read-out: RET inhibition
[10] = read-out: % Inhibition mean RET
[11] = 10 μmolar compound concentration, ATP at Km app, read-out: RPS6KB1 (p70S6K) inhibition
[12] = read-out: % Inhibition mean RPS6KB1 (p70S6K)

Chain of PDGFRA (PDGFR alpha) (P16234 24-1089): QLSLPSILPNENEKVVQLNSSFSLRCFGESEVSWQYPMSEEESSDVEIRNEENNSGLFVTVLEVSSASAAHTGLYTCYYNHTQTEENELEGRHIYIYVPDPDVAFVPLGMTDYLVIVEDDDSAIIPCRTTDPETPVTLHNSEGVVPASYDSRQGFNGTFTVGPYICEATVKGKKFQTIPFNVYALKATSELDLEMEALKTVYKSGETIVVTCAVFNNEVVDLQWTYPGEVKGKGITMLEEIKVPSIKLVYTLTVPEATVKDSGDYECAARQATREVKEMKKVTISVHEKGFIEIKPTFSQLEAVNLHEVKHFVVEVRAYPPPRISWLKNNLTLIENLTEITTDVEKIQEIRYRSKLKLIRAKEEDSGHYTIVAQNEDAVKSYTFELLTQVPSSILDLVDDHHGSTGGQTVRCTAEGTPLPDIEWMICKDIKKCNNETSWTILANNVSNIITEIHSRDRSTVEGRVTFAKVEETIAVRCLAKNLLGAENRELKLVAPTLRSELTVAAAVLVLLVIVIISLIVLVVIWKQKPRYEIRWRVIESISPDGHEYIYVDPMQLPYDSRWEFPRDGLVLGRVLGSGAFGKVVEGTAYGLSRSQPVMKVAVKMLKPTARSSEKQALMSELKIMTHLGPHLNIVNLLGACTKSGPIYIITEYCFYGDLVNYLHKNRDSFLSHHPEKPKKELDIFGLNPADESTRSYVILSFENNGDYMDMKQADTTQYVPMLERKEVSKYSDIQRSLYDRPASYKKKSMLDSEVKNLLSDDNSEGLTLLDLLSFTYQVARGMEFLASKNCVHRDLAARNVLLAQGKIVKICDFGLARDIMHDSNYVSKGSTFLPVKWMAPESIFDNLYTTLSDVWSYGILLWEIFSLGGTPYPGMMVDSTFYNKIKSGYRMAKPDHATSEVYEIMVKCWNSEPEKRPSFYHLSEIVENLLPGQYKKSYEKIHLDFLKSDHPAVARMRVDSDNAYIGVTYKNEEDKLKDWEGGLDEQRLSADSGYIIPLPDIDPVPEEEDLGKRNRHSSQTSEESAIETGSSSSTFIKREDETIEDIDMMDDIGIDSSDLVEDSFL

SMILES	inhibition at 10 µM [1, 5] [%]	inhibition at 10 µM [1, 6] [%]	inhibition at 10 µM [2, 7] [%]	inhibition at 10 µM [2, 8] [%]	inhibition at 10 µM [3, 9] [%]	inhibition at 10 µM [3, 10] [%]	inhibition at 10 µM [4, 11] [%]	inhibition at 10 µM [4, 12] [%]
CCn1ncc2c1CC[C@@H](Nc1nc3c(-c4ccc(F)cc4C)cccn3n1)C2 [Example R-42, (R)-(1-Ethyl-4,5,6,7-tetrahydro-1H-indazol-5-yl)-[8-(4-fluoro-2-methyl-phenyl)-[1,2,4]triazolo[1,5-a]pyridine-2-yl]-amine]	< 40	18	< 40	28	< 40	23	< 40	22
CCn1ncc2c1CC[C@@H](Nc1nc3c(-c4ccc(F)c(Cl)c4)cccn3n1)C2 [Example R-61, (R)-[8-(3-Chloro-4-fluoro-phenyl)-[1,2,4]triazolo[1,5-a]pyridine-2-yl]-(1-ethyl-4,5,6,7-tetrahydro-1H-indazol-5-yl)-amine]	< 40	18	< 40	16	< 40	20	< 40	3
CCn1ncc2c1CC[C@H](Nc1nc3c(-c4ccc(F)c(Cl)c4)cccn3n1)C2 [Example S-61, (S)-[8-(3-Chloro-4-fluoro-phenyl)-[1,2,4]triazolo[1,5-a]pyridine-2-yl]-(1-ethyl-4,5,6,7-tetrahydro-1H-indazol-5-yl)-amine]	< 40	13	< 40	23	< 40	23	< 40	22
